# In patent US7816353B2 (Exelixis, Inc., priority 2003, dated 2010):
# pIC50: −log10 of the molar value.
# Biological target: T1, p70S6K (Homo sapiens, UniProt P23443, T412E)
# T1 construct: human p70S6 kinase domain residues 1-421, containing a T412E mutation; made in house
# Test: p70S6 Kinase Assay (Luciferase-Coupled Chemiluminescent Kinase assay, LCCA)
# Assay type: biochemical
# Conditions: human p70S6 kinase domain residues 1-421, T412E; 5 μM ATP; read-out: p70S6K IC50
# Protocol: Kinase activity and compound inhibition are investigated using one or more of the three assay formats described below. The ATP concentrations for each assay are selected to be close to the Michaelis-Menten constant (KM) for each individual kinase. Dose-response experiments are performed at 10 different inhibitor concentrations in a 384-well plate format. […] Y=Min+(Max−Min)/(1+(X/IC50)^H) Equation (2) p70S6 Kinase Assay
# Biochemical activity of p70S6 kinase was assessed using a Luciferase-Coupled Chemiluminescent Kinase assay (LCCA) format. Kinase activity was measured as the percent ATP remaining following the kinase reaction. Remaining ATP was detected by luciferase-luciferin-coupled chemiluminescence. […] The mixture is incubated at ambient temperature for 2 hours after which 20 μL luciferase-luciferin mix is added and the chemiluminescent signal read using a Wallac Victor^2 reader.
# T1 sequence (P23443 1-421 T412E): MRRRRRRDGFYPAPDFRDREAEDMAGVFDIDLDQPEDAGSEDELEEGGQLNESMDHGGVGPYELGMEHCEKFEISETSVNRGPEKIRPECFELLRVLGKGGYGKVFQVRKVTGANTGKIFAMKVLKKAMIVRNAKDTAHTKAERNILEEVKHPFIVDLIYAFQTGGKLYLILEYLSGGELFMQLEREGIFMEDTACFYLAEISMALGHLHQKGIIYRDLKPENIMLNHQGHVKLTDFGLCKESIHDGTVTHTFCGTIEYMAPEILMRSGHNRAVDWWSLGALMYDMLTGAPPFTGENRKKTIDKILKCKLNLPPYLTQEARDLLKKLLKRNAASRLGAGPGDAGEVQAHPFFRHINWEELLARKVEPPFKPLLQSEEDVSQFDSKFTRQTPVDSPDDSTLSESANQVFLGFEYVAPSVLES
row,pIC50,SMILES
1,6.30 to 7.30,"Nc1nc(Cl)c(C=O)c(OCC(=O)Nc2cccc(C(F)(F)F)c2)n1 [Example 50, 2-[(2-amino-6-chloro-5-formylpyrimidin-4-yl)oxy]-N-[3-(trifluoromethyl)phenyl]acetamide]"
2,< 5.70,"COc1ccc(C(F)(F)F)cc1NC(=O)[C@H](C)Nc1nc(N)nc(SC)c1C#N [Example 79, N^2-[2-amino-5-cyano-6-(methylthio)pyrimidin-4-yl]-N-[2-(methyloxy)-5-(trifluoromethyl)phenyl]-L-alaninmide]"
3,6.30 to 7.30,"CSc1cc(SCC(=O)Nc2cccc(C(F)(F)F)c2)nc(N)n1 [Example 48, 2-{[2-amino-6-(methylthio)pyrimidin-4-yl]thio}-N-[3-(trifluoromethyl)phenyl]acetamide]"
4,< 5.70,"CCOc1nc(N)nc(N[C@@H](CCCNC(C)=O)C(=O)Nc2cccc(C(F)(F)F)c2)c1C#N [Example 186, N~5~-acetyl-N~2~-[2-amino-5-cyano-6-(ethyloxy)pyrimidin-4-yl]-N-[3-(trifluoromethyl)phenyl]-L-ornithinamide]"
5,< 5.70,"C[C@H](Nc1nc(N)nc(N)c1C#N)C(=O)Nc1cccc(C(F)(F)F)c1 [Example 89, N^2-(2,6-diamino-5-cyanopyrimidin-4-yl)-N-[3-(trifluoromethyl)phenyl]-L-alaninamide]"
6,< 5.70,"CSc1nc(N)nc(SCC(=O)Nc2cc(C(F)(F)F)cc(C(F)(F)F)c2)c1C#N [Example 77, 2-{[2-amino-5-cyano-6-(methylthio)pyrimidin-4-yl]thio}-N-[3,5-bis(trifluoromethyl)phenyl]acetamide]"
7,< 5.70,"COc1nc(N)nc(N[C@@H](C)C(=O)Nc2cc(OCCN(C)C)cc(C(F)(F)F)c2)c1C#N [Example 179, N~2~-[2-amino-5-cyano-6-(methyloxy)pyrimidin-4-yl]-N-[3-{[2-(dimethylamino)ethyl]oxy}-5-(trifluoromethyl)phenyl]-L-alaninamide]"
8,< 5.70,"CSc1nc(N)nc(N(C)CC(=O)Nc2cccc(C(F)(F)F)c2)c1C#N [Example 72, N^2-[2-amino-5-cyano-6-(methylthio)pyrimidin-4-yl]-N^2-methyl-N-[3-(trifluoromethyl)phenyl]glycinamide]"
9,< 5.70,"C[C@H](Nc1nc(N)nc(S(C)(=O)=O)c1C#N)C(=O)Nc1cccc(C(F)(F)F)c1 [Example 75, N^2-[2-amino-5-cyano-6-(methylsulfonyl)pyrimidin-4-yl]-N-[3-(trifluoromethyl)phenyl]-L-alaninamide]"
10,< 5.70,"CCOc1nc(N)nc(N[C@@H](CCCN2CCOCC2)C(=O)Nc2cccc(C(F)(F)F)c2)c1C#N [Example 168, N~2~-[2-amino-5-cyano-6-(ethyloxy)pyrimidin-4-yl]-5-morpholin-4-yl-N-[3-(trifluoromethyl)phenyl]-L-norvalinamide]"
11,< 5.70,"CCOc1nc(N)nc(N[C@@H](COC(C)=O)C(=O)Nc2cccc(C(F)(F)F)c2)c1C#N [Example 164, (2S)-2-{[2-amino-5-cyano-6-(ethyloxy)pyrimidin-4-yl]amino}-3-oxo-3-{[3-(trifluoromethyl)phenyl]amino}propyl acetate]"

# Further lines, the compound ahead of its results:
row,SMILES,pIC50
1,"COc1nc(N)nc(N(C)[C@@H](C)C(=O)Nc2cccc(Br)c2)c1C#N [Example 181, N~2~-[2-amino-5-cyano-6-(methyloxy)pyrimidin-4-yl]-N-(3-bromophenyl)-N~2~-methyl-L-alaninamide]",< 5.70
2,"CSc1nc(N)nc(NCCC[C@H](N)C(=O)Nc2cccc(C(F)(F)F)c2)c1C#N [Example 155, N~5~-[2-amino-5-cyano-6-(methylthio)pyrimidin-4-yl]-N-[3-(trifluoromethyl)phenyl]-L-ornithinamide]",< 5.70
3,CSc1nc(N)nc(N[C@@H](CCC(N)=O)C(=O)Nc2cccc(C(F)(F)F)c2)c1C#N [Example 139],6.30 to 7.30
4,"CC(C)Oc1nc(N)nc(N[C@@H](C)C(=O)Nc2cccc(C(F)(F)F)c2)c1C#N [Example 122, N^2-{2-amino-5-cyano-6-[(1-methylethyl)oxy]pyrimidin-4-yl}-N-[3-(trifluoromethyl)phenyl]-L-alaninamide]",< 5.70
5,"CSc1nc(NC(C)=O)nc(N(C(C)=O)[C@@H](CCCNC(C)=O)C(=O)Nc2cccc(C(F)(F)F)c2)c1C#N [Example 166, N~2~,N~5~-diacetyl-N~2~-[2-(acetylamino)-5-cyano-6-(methylthio)pyrimidin-4-yl]-N-[3-(trifluoromethyl)phenyl]-L-ornithinamide]",< 5.70
6,"CSc1nc(N)nc(N(C)[C@@H](CCCCNC(=O)OCc2ccccc2)C(=O)Nc2cccc(C(F)(F)F)c2)c1C#N [Example 153, N~2~-[2-amino-5-cyano-6-(methylthio)pyrimidin-4-yl]-N~2~-methyl-N~6~-{[(phenylmethyl)oxy]carbonyl}-N-[3-(trifluoromethyl)phenyl]-L-lysinamide]",< 5.70
7,"CSc1nc(N)nc(SCc2nc3ccc(C(F)(F)F)cc3[nH]2)c1C#N [Example 63, 2-amino-4-(methylthio)-6-({[6-(trifluoromethyl)-1H-benzimidazol-2-yl]methyl}thio)pyrimidine-5-carbonitrile]",5.70 to 6.30
8,"CSc1nc(N)nc(N[C@@H](CN2CCOCC2)C(=O)Nc2cccc(C(F)(F)F)c2)c1C#N [Example 191, N~2~-[2-amino-5-cyano-6-(methylthio)pyrimidin-4-yl]-3-morpholin-4-yl-N-[3-(trifluoromethyl)phenyl]-L-alaninamide]",< 5.70
9,"CCOc1nc(N)nc(N[C@@H](C)C(=O)Nc2cc(C(=O)NCCN3CCOCC3)cc(C(F)(F)F)c2)c1C#N [Example 159, 3-({N-[2-amino-5-cyano-6-(ethyloxy)pyrimidin-4-yl]-L-alanyl}amino)-N-(2-morpholin-4-ylethyl)-5-(trifluoromethyl)benzamide]",< 5.70
10,"CCOc1nc(N)nc(N[C@@H](CCCNC(=N)N)C(=O)Nc2cccc(C(F)(F)F)c2)c1C#N [Example 152, N~2~-[2-amino-5-cyano-6-(ethyloxy)pyrimidin-4-yl]-N-[3-(trifluoromethyl)phenyl]-L-argininamide]",< 5.70
11,"CCOc1nc(N)nc(N[C@@H](C)C(=O)Nc2cc(OCCN(C)C)cc(C(F)(F)F)c2)c1C#N [Example 180, N~2~-[2-amino-5-cyano-6-(ethyloxy)pyrimidin-4-yl]-N-[3-{[2-(dimethylamino)ethyl]oxy}-5-(trifluoromethyl)phenyl]-L-alaninamide]",< 5.70
12,"CCN(CC)CCNc1cc(NC(=O)[C@H](C)Nc2nc(N)nc(SC)c2C#N)cc(C(F)(F)F)c1 [Example 106, N^2-[2-amino-5-cyano-6-(methylthio)pyrimidin-4-yl]-N-[3-{[2-(diethylamino)ethyl]amino}-5-(trifluoromethyl)phenyl]-L-alaninamide]",< 5.70
13,"CCOc1nc(N)nc(N[C@@H](Cc2ccc(O)cc2)C(=O)Nc2cccc(C(F)(F)F)c2)c1C#N [Example 154, Nalpha-[2-amino-5-cyano-6-(ethyloxy)pyrimidin-4-yl]-N-[3-(trifluoromethyl)phenyl]-L-tyrosinamide]",< 5.70
14,"CSc1nc(NC(C)=O)nc(SCC(=O)Nc2cccc(C(F)(F)F)c2)c1C#N [Example 41, 2-{[2-(acetylamino)-5-cyano-6-(methylthio)pyrimidin-4-yl]thio}-N-[3-(trifluoromethyl)phenyl]acetamide]",6.30 to 7.30
15,"CNc1nc(N)nc(SCC(=O)Nc2cccc(C(F)(F)F)c2)c1C#N [Example 61, 2-{[2-amino-5-cyano-6-(methylamino)pyrimidin-4-yl]thio}-N-[3-(trifluoromethyl)phenyl]acetamide]",5.70 to 6.30
16,"CSc1nc(N)nc(NCC(=O)Nc2cccc(C(F)(F)F)c2)c1/C=N/N [Example 58, N^2-[2-amino-5-[(E)-hydrazonomethyl]-6-(methylthio)pyrimidin-4-yl]-N-[3-(trifluoromethyl)phenyl]glycinamide]",5.70 to 6.30
17,"CCOc1nc(N)nc(N[C@@H](COCc2ccccc2)C(=O)Nc2cccc(C(F)(F)F)c2)c1C#N [Example 151, N~2~-[2-amino-5-cyano-6-(ethyloxy)pyrimidin-4-yl]-O-(phenylmethyl)-N-[3-(trifluoromethyl)phenyl]-L-serinamide]",< 5.70
18,"CSc1nc(N)nc(NC(C)(C)C(=O)Nc2cccc(C(F)(F)F)c2)c1C#N [Example 81, N^2-[2-amino-5-cyano-6-(methylthio)pyrimidin-4-yl]-2-methyl-N-[3-(trifluoromethyl)phenyl]alaninamide]",< 5.70
19,"CSc1nc(N)nc(N[C@@H](CCCCNC(=O)OC(C)(C)C)C(=O)Nc2cccc(C(F)(F)F)c2)c1C#N [Example 103, N^2-[2-amino-5-cyano-6-(methylthio)pyrimidin-4-yl]-N-6-{[(1,1-dimethylethyl)oxy]carbonyl}-N-[3-(trifluoromethyl)phenyl]-L-lysinamide]",< 5.70
20,"CCOc1nc(N)nc(N[C@@H](C)C(=O)Nc2cc(C(=O)NCCCN3CCCC3)cc(C(F)(F)F)c2)c1C#N [Example 158, 3-({N-[2-amino-5-cyano-6-(ethyloxy)pyrimidin-4-yl]-L-alanyl}amino)-N-(3-pyrrolidin-1-ylpropyl)-5-(trifluoromethyl)benzamide]",< 5.70
21,"CSc1nc(N)nc(N(C)CC(=O)Nc2cccc(C(C)C)c2)c1C#N [Example 110, N^2-[2-amino-5-cyano-6-(methylthio)pyrimidin-4-yl]-N^2-methyl-N-[3-(1-methylethyl)phenyl]glycinamide]",< 5.70
22,"CSc1nc(N)nc(N[C@@H](C)C(=O)Nc2cc(C(F)(F)F)ccc2Cl)c1C#N [Example 80, N^2-[2-amino-5-cyano-6-(methylthio)pyrimidin-4-yl]-N-[2-5-(trifluoromethyl)phenyl]-L-alaninamide]",< 5.70
